Laboratory results: patent US7074789B2, “Kinase inhibitors” (Amgen Inc., priority 1999, dated 2006)

Key:
Assay type in all cases: biochemical
Ret-1 = target: T1, Ret-1 (Homo sapiens, UniProt P07949); assay: Kinase inhibition assay (33P transfer), Ret; settings: Table 6, Ret-1 kinase inhibition class
T1 construct: Kinases are expressed as either kinase domains or full length constructs; made in house

Src = target: T2, Src (Homo sapiens, UniProt P12931); assay: Kinase inhibition assay (33P transfer), Src; settings: Table 6, Src-1 kinase inhibition class
T2 construct: Kinases are expressed as either kinase domains or full length constructs; made in house
Outline: (§1)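 Activity read as 33P incorporation from ATP into poly(Glu,Tyr) 4:1 or poly(Arg,Ser) 3:1 substrate bound to microtiter plates, measured by scintillation after acid washing. Enzymes were affinity-purified GST or polyHis fusions (kinase domain or full length) from E. coli or baculovirus; IC50 = 50% reduction in labelled phosphate.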

EPHB4 = target: T3, EPHB4 (Homo sapiens, UniProt P54760); assay: Kinase inhibition assay (33P transfer), EPHB4; settings: read-out: EPHB4-1
T3 construct: Kinases are expressed as either kinase domains or full length constructs; made in house
T3 sequence (P54760 16-987): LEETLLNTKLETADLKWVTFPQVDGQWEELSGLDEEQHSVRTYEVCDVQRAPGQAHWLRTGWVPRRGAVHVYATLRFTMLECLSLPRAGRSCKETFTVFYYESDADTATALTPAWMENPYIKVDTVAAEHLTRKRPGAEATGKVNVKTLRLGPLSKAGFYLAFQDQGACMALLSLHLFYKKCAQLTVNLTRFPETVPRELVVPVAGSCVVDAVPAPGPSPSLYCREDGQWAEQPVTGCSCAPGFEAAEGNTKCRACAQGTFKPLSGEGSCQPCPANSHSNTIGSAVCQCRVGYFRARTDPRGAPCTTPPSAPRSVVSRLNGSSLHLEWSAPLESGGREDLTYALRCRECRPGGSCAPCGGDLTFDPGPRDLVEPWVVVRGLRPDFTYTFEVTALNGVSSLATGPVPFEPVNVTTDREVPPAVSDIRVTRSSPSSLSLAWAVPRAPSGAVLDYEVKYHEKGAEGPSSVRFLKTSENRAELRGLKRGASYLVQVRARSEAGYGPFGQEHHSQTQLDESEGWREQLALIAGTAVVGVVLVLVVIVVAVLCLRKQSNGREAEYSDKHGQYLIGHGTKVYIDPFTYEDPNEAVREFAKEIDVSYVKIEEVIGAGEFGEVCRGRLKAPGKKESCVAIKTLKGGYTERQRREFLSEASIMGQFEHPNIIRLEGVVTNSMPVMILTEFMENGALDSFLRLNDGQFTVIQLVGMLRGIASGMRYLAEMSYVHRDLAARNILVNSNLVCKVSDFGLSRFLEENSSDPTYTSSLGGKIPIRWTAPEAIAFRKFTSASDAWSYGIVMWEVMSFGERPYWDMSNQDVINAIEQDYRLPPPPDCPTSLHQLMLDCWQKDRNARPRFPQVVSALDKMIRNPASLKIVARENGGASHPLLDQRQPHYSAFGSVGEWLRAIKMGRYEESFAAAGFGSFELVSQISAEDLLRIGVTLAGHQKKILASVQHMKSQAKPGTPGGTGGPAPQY

Flt-1 = target: T4, Flt-1 (Homo sapiens, UniProt P17948); assay: Kinase inhibition assay (33P transfer), Flt-1
T4 construct: Kinases are expressed as either kinase domains or full length constructs; made in house
Outline: as §1

PDGFRB = target: T5, PDGFRB (Homo sapiens, UniProt P09619); assay: Kinase inhibition assay (33P transfer), PDGFRB; settings: read-out: PDGFRB-1
T5 construct: Kinases are expressed as either kinase domains or full length constructs; made in house
T5 sequence (P09619 33-1106, species assumed): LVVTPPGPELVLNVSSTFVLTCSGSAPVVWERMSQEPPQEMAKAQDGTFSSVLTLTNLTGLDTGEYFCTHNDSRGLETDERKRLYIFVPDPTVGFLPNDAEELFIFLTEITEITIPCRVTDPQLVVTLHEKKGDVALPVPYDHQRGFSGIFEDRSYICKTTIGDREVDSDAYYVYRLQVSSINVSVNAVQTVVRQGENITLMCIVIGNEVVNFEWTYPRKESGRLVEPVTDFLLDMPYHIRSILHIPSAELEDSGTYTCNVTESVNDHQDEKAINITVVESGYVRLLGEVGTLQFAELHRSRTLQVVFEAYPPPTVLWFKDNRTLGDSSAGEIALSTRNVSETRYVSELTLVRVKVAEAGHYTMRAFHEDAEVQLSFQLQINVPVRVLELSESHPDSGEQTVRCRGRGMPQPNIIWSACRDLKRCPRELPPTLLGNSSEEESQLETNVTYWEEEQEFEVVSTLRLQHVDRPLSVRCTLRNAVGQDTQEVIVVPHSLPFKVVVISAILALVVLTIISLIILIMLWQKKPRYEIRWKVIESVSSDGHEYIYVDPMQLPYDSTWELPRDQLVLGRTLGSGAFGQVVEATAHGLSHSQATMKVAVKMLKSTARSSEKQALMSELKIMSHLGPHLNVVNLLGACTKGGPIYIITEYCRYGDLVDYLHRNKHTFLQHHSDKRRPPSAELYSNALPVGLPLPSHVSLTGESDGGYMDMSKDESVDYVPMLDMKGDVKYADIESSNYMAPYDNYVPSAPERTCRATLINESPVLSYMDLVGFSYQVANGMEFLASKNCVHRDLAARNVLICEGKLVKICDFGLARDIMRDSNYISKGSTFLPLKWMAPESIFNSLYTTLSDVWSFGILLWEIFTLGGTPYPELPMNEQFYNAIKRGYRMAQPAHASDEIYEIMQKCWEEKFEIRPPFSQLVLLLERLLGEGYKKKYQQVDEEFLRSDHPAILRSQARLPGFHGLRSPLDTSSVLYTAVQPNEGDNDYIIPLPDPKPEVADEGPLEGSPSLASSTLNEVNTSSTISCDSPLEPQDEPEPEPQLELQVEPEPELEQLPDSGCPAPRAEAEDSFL

T2 sequence (P12931 whole entry, species assumed, the tested form may be a part): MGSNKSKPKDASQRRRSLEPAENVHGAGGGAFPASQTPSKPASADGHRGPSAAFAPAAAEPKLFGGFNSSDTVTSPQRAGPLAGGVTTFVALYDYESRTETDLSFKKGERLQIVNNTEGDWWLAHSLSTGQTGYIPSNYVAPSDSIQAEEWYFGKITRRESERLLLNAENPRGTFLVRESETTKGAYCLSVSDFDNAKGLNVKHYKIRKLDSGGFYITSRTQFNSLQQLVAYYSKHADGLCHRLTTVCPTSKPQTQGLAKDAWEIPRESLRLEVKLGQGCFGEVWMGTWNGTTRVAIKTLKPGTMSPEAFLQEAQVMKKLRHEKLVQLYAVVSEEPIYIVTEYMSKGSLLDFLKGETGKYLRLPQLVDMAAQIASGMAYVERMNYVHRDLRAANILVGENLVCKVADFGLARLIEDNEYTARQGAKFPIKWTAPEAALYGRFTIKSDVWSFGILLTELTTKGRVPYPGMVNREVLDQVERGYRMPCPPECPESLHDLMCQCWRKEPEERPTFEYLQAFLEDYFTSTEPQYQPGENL
T1 sequence (P07949 29-1114): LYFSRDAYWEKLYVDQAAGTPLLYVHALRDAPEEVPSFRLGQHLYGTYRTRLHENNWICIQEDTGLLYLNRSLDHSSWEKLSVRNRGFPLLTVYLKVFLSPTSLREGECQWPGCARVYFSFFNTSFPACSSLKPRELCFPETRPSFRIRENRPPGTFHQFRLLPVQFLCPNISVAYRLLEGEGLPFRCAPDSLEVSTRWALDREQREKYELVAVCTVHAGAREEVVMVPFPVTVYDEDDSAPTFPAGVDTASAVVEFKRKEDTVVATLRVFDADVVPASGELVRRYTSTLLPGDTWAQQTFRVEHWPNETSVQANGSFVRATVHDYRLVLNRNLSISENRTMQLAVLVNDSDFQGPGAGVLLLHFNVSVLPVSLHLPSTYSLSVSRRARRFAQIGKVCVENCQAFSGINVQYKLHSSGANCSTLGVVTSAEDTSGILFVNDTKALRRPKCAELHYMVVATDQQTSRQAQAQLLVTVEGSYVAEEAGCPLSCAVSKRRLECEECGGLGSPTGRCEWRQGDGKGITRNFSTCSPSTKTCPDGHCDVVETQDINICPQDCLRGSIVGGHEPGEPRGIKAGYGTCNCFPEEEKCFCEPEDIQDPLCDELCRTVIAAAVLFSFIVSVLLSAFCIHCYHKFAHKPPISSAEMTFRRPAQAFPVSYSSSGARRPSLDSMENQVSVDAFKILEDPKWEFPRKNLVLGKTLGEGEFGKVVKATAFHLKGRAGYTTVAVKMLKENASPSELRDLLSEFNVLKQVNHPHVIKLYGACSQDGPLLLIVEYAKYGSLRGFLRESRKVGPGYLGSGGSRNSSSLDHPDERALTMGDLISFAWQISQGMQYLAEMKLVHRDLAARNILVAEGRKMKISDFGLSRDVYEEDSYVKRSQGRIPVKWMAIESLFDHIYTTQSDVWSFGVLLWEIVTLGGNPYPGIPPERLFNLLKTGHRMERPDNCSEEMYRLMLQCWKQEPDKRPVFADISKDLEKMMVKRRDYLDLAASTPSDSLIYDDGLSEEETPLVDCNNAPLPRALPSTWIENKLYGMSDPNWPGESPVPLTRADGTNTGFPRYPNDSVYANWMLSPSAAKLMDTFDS
T4 sequence (P17948 27-1338, species assumed): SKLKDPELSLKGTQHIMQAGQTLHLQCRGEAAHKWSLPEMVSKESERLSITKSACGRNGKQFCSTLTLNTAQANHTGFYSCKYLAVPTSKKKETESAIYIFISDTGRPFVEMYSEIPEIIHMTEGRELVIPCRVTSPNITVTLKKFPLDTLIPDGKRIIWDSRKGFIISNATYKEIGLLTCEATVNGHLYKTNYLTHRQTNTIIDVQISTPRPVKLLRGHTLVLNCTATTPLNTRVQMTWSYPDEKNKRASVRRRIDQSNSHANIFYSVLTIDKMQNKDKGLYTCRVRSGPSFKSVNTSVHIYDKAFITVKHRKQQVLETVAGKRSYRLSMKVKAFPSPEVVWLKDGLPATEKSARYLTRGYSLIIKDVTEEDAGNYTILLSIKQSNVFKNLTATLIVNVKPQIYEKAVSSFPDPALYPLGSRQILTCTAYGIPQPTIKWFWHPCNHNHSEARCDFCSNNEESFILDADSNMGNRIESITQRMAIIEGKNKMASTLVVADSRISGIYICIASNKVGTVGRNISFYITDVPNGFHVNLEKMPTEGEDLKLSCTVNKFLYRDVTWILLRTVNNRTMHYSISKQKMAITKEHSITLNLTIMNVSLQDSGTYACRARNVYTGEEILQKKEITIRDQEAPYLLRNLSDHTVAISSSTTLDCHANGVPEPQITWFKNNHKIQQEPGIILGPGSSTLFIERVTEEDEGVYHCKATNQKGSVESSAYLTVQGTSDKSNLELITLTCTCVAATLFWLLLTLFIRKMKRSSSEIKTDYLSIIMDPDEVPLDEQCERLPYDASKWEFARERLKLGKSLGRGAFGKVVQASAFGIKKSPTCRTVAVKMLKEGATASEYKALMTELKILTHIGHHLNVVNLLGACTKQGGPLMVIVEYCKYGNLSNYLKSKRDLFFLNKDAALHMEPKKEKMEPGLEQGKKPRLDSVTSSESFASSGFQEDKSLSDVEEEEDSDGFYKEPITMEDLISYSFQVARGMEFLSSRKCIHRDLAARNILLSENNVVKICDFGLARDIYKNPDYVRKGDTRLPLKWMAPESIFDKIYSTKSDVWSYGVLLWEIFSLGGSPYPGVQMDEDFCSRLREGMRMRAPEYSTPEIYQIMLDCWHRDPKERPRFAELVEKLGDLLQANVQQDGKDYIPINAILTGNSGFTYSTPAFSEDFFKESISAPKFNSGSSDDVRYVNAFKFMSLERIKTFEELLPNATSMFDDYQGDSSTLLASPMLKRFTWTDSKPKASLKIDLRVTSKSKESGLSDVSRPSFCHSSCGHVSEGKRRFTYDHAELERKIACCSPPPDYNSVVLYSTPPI

| SMILES | IC50 (Ret-1) | IC50 (Src) | IC50 (EPHB4) | IC50 (Flt-1) | IC50 (PDGFRB) |
| --- | --- | --- | --- | --- | --- |
| COc1ccc(Sc2ncnc(Nc3cc(OC)c(OC)c(OC)c3)n2)cc1 [Compound 175] | 5.99 to 8.74 µM | 0.999 to 5.99 µM | 0.999 to 5.99 µM | 5.99 to 8.74 µM | < 0.999 µM |
| COc1cc(Nc2ncnc(Nc3nc4ccccc4n3C)n2)cc(OC)c1OC [Compound 938] | > 11 µM | > 11 µM | > 11 µM | 0.982 to 5.89 µM | 0.982 to 5.89 µM |
| COCCOc1ccc(Nc2ncnc(Nc3cc(-c4ccco4)n[nH]3)n2)cc1OCCOC [Compound 328] | 0.856 to 5.13 µM | 0.856 to 5.13 µM | > 9.63 µM | < 0.856 µM | 0.856 to 5.13 µM |
| COc1ccc(Nc2ncnc(Nc3cc(-c4ccco4)n[nH]3)n2)cc1OC [Compound 337] | < 1.05 µM | 1.05 to 6.33 µM | 1.05 to 6.33 µM | < 1.05 µM | 1.05 to 6.33 µM |
| COc1cc(Nc2ncnc(Nc3cc(C(C)(C)C)[nH]n3)n2)cc(OC)c1OC [Compound 313] | 1 to 6.01 µM | < 1 µM | 1 to 6.01 µM | 6.01 to 8.76 µM | 1 to 6.01 µM |
| COc1ccc(Nc2ncnc(Nc3ccc(C)c(O)c3)n2)cc1OC [Compound 119] | < 1.13 µM | 1.13 to 6.79 µM | > 12.7 µM | < 1.13 µM | < 1.13 µM |
| COc1cc(Nc2ncnc(Nc3ccc4c(c3)OCO4)n2)cc(OC)c1OC [Compound 252] | > 11.3 µM | < 1.01 µM | 1.01 to 6.04 µM | < 1.01 µM | 1.01 to 6.04 µM |
| COc1ccc2c(c1)c(CCNC(C)=O)cn2-c1ncnc(Nc2cc(OC)c(OC)c(OC)c2)n1 [Compound 339] | < 0.812 µM | > 9.14 µM | > 9.14 µM | > 9.14 µM | < 0.812 µM |
| COc1cc(Nc2ncnc(-n3c(Nc4ccccc4)nc4ccccc43)n2)cc(OC)c1OC [Compound 336] | < 0.852 µM | > 9.58 µM | > 9.58 µM | < 0.852 µM | < 0.852 µM |
| COc1ccc(Nc2ncnc(N(CC(=O)O)c3ccc4c(c3)OCO4)n2)cc1OC [Compound 320] | > 10.6 µM | > 10.6 µM | > 10.6 µM | > 10.6 µM | > 10.6 µM |
| Cc1cccc(Nc2ncnc(Nc3ccc(O)cc3)n2)c1 [Compound 107] | 1.36 to 8.18 µM | < 1.36 µM | 1.36 to 8.18 µM | < 1.36 µM | 1.36 to 8.18 µM |

Next, values leading:

| IC50 (Ret-1) | IC50 (Src) | IC50 (EPHB4) | IC50 (Flt-1) | IC50 (PDGFRB) | SMILES |
| --- | --- | --- | --- | --- | --- |
| < 1.02 µM | < 1.02 µM | > 11.4 µM | < 1.02 µM | < 1.02 µM | COc1cc(Nc2ncnc(N3CCCc4ccccc43)n2)cc(OC)c1OC [Compound 609] |
| 1.04 to 6.23 µM | < 1.04 µM | 1.04 to 6.23 µM | > 11.7 µM | < 1.04 µM | COc1cc(Nc2ncnc(Nc3ccc(C)c(F)c3)n2)cc(OC)c1OC [Compound 300] |
| > 11 µM | > 11 µM | > 11 µM | > 11 µM | 0.982 to 5.89 µM | COc1cc(Nc2ncnc(-n3ccc4c(OC)cccc43)n2)cc(OC)c1OC [Compound 238] |
| > 11.9 µM | > 11.9 µM | > 11.9 µM | 1.06 to 6.34 µM | < 1.06 µM | COc1cc(Nc2ncnc(-n3cnc4ccccc43)n2)cc(OC)c1OC [Compound 186] |
| > 13.3 µM | > 13.3 µM | > 13.3 µM | 7.09 to 10.3 µM | 7.09 to 10.3 µM | COc1cc(Nc2ncnc(-c3ccccc3)n2)cc(OC)c1OC [Compound 970] |
| > 10.3 µM | > 10.3 µM | > 10.3 µM | > 10.3 µM | > 10.3 µM | COc1cc2ccn(-c3ncnc(Nc4cc(OC)c(OC)c(OC)c4)n3)c2cc1OC [Compound 239] |
| > 10.9 µM | > 10.9 µM | > 10.9 µM | 0.971 to 5.83 µM | < 0.971 µM | COc1cc(Nc2ncnc(-n3ccc4cc(Cl)ccc43)n2)cc(OC)c1OC [Compound 198] |
| > 11.3 µM | 1 to 6.01 µM | > 11.3 µM | 1 to 6.01 µM | 1 to 6.01 µM | COc1cc(Nc2ncnc(N3CCCC4CCCCC43)n2)cc(OC)c1OC (centres unmarked) [Compound 314] |
